Assay results: patent US20090311344A1, “Dosing Regimen” (priority 2008, published 2009)

Assay: Multiple dose study in cancer subjects: treatment-emergent (serious) adverse events
Conditions: n of N = 12
Description: 46 subjects with cancer receiving platinum-based therapies were enrolled into 3 cohorts (N=16 in Cohort 1, 14 in Cohort 2, and 16 in Cohort 3). The subjects received the TPO mimetic peptide compound or placebo within 2 hours prior to the platinum-based chemotherapy on Day 1 of the first 2 cycles with a 21-day interval between each cycle. In addition to the Day 1 administration, gemcitabine administration was permitted on Day 8 of each cycle. Other chemotherapy medications were limited to dosing on Day 1 of each cycle only. Subjects were followed up for a total of 4 cycles of chemotherapy. Chemotherapy regimen continued beyond the first 4 cycles as per standard of care therapy. In the first cohort, 12 subjects received 1.5 μg/kg the TPO mimetic peptide compound and 4 subjects received placebo. In the second cohort 10 subjects received 3.0 μg/kg the TPO mimetic peptide compound and 4 subjects received placebo. In the third cohort, 12 subjects received 2.25 μg/kg the TPO mimetic peptide compound and 4 subjects received placebo. […] Therefore, a third cohort at a lower dose (2.25 μg/kg) was added to collect additional safety, tolerability, PD, and PK data.

Methoxypolyethyleneglycol20000-propionyl-L-Isoleucyl-L-Glutamyl-Glycyl-L-Prolyl-L-Threonyl-L-Leucyl-L-Arginyl-L-Glutaminyl-L-2-Naphthylalanyl-L-Leucyl-L-Alanyl-L-Alanyl-L-Arginyl-Sarcosyl-Ne-(methoxypolyethyleneglycol20000-propionyl-L-Isoleucyl-L-Glutamyl-Glycyl-L-Prolyl-L-Threonyl-L-Leucyl-L-Arginyl-L-Glutaminyl-L-2-Naphthylalanyl-L-Leucyl-L-Alanyl-L-Alanyl-L-Arginyl-Sarcosyl-)-Lysinamide [TPO mimetic peptide compound]
12: Total no. subjects WITH ADVERSE EVENTS (1.5 ug/kg)
8: Adverse event: Blood and lymphatic system disorders (1.5 ug/kg)
0: Adverse event: Alanine aminotransferase increased (1.5 ug/kg) | Adverse event: Arthralgia (1.5 ug/kg) | Adverse event: Aspartate aminotransferase increased (1.5 ug/kg) | Adverse event: Azotaemia (1.5 ug/kg) | Adverse event: C-reactive protein increased (1.5 ug/kg) | Adverse event: Chills (1.5 ug/kg) | Adverse event: Confusional state (1.5 ug/kg) | Adverse event: Cough (1.5 ug/kg) | Adverse event: Dehydration (1.5 ug/kg) | Adverse event: Dermatitis acneiform (1.5 ug/kg) | Adverse event: Dizziness (1.5 ug/kg) | Adverse event: Dry skin (1.5 ug/kg) | Adverse event: Dyspepsia (1.5 ug/kg) | Adverse event: Ear and labyrinth disorders (1.5 ug/kg) | Adverse event: Epistaxis (1.5 ug/kg) | Adverse event: Eructation (1.5 ug/kg) | Adverse event: Febrile neutropenia (1.5 ug/kg) | Adverse event: General physical health deterioration (1.5 ug/kg) | Adverse event: Haematocrit decreased (1.5 ug/kg) | Adverse event: Hepatobiliary disorders (1.5 ug/kg) | Adverse event: Hyperbilirubinaemia (1.5 ug/kg) | Adverse event: Hypersensitivity (1.5 ug/kg) | Adverse event: Hypertension (1.5 ug/kg) | Adverse event: Hypoalbuminaemia (1.5 ug/kg) | Adverse event: Hypokalaemia (1.5 ug/kg) | Adverse event: Hypomagnesaemia (1.5 ug/kg) | Adverse event: Hyponatraemia (1.5 ug/kg) | Adverse event: Immune system disorders (1.5 ug/kg) | Adverse event: Insomnia (1.5 ug/kg) | Adverse event: Leukocytosis (1.5 ug/kg) | Adverse event: Mucosal inflammation (1.5 ug/kg) | Adverse event: Musculoskeletal and connective tissue disorders (1.5 ug/kg) | Adverse event: Oedema (1.5 ug/kg) | Adverse event: Pain in extremity (1.5 ug/kg) | Adverse event: Paraesthesia (1.5 ug/kg) | Adverse event: Peripheral sensory neuropathy (1.5 ug/kg) | Adverse event: Renal and urinary disorders (1.5 ug/kg) | Adverse event: Tinnitus (1.5 ug/kg) | Adverse event: Vascular disorders (1.5 ug/kg) | Serious adverse event: Blood creatinine increased (1.5 ug/kg) | Serious adverse event: Dehydration (1.5 ug/kg) | Serious adverse event: Dyspnoea (1.5 ug/kg) | Serious adverse event: Febrile neutropenia (1.5 ug/kg) | Serious adverse event: Hyponatraemia (1.5 ug/kg) | Serious adverse event: Investigations (1.5 ug/kg) | Serious adverse event: Thrombocytopenia (1.5 ug/kg) | Serious adverse event: Vomiting (1.5 ug/kg) | Adverse event: Acute myocardial infarction (2.25 ug/kg) | Adverse event: Alanine aminotransferase increased (2.25 ug/kg) | Adverse event: Anorexia (2.25 ug/kg) | Adverse event: Anxiety (2.25 ug/kg) | Adverse event: Arthralgia (2.25 ug/kg) | Adverse event: Aspartate aminotransferase increased (2.25 ug/kg) | Adverse event: Atrial fibrillation (2.25 ug/kg) | Adverse event: C-reactive protein increased (2.25 ug/kg) | Adverse event: Cancer pain (2.25 ug/kg) | Adverse event: Cardiac disorders (2.25 ug/kg) | Adverse event: Cardiac failure (2.25 ug/kg) | Adverse event: Dermatitis acneiform (2.25 ug/kg) | Adverse event: Diabetes mellitus non-insulin-dependent (2.25 ug/kg) | Adverse event: Dry skin (2.25 ug/kg) | Adverse event: Dyspepsia (2.25 ug/kg) | Adverse event: Ear and labyrinth disorders (2.25 ug/kg) | Adverse event: Epistaxis (2.25 ug/kg) | Adverse event: Folliculitis (2.25 ug/kg) | Adverse event: Hemorrhoids (2.25 ug/kg) | Adverse event: Hypersensitivity (2.25 ug/kg) | Adverse event: Hypocalcaemia (2.25 ug/kg) | Adverse event: Hypophosphataemia (2.25 ug/kg) | Adverse event: Immune system disorders (2.25 ug/kg) | Adverse event: Leukocytosis (2.25 ug/kg) | Adverse event: Lung abscess (2.25 ug/kg) | Adverse event: Lymphopenia (2.25 ug/kg) | Adverse event: Mucosal inflammation (2.25 ug/kg)
5: Adverse event: Anorexia (1.5 ug/kg) | Adverse event: Fatigue (1.5 ug/kg) | Adverse event: Metabolism and nutrition disorders (1.5 ug/kg) | Total no. subjects WITH SERIOUS ADVERSE EVENTS (1.5 ug/kg)
1: Adverse event: Acute myocardial infarction (1.5 ug/kg) | Adverse event: Anxiety (1.5 ug/kg) | Adverse event: Atrial fibrillation (1.5 ug/kg) | Adverse event: Blood creatinine increased (1.5 ug/kg) | Adverse event: Cancer pain (1.5 ug/kg) | Adverse event: Cardiac failure (1.5 ug/kg) | Adverse event: Diabetes mellitus non-insulin-dependent (1.5 ug/kg) | Adverse event: Dyspnoea (1.5 ug/kg) | Adverse event: Folliculitis (1.5 ug/kg) | Adverse event: Headache (1.5 ug/kg) | Adverse event: Hemorrhoids (1.5 ug/kg) | Adverse event: Hiccups (1.5 ug/kg) | Adverse event: Hypocalcaemia (1.5 ug/kg) | Adverse event: Hypophosphataemia (1.5 ug/kg) | Adverse event: Lung abscess (1.5 ug/kg) | Adverse event: Neoplasms benign, malignant and unspecified (incl cysts and polyps) (1.5 ug/kg) | Adverse event: Neuropathy peripheral (1.5 ug/kg) | Adverse event: Oedema peripheral (1.5 ug/kg) | Adverse event: Peripheral motor neuropathy (1.5 ug/kg) | Adverse event: Platelet count decreased (1.5 ug/kg) | Adverse event: Psychiatric disorders (1.5 ug/kg) | Adverse event: Pyrexia (1.5 ug/kg) | Adverse event: Respiratory failure (1.5 ug/kg) | Adverse event: Thrombocythaemia (1.5 ug/kg) | Adverse event: Weight decreased (1.5 ug/kg) | Serious adverse event: Abdominal pain (1.5 ug/kg) | Serious adverse event: Acute myocardial infarction (1.5 ug/kg) | Serious adverse event: Anorexia (1.5 ug/kg) | Serious adverse event: Atrial fibrillation (1.5 ug/kg) | Serious adverse event: Cardiac failure (1.5 ug/kg) | Serious adverse event: Fatigue (1.5 ug/kg) | Serious adverse event: Lung abscess (1.5 ug/kg) | Serious adverse event: Metabolism and nutrition disorders (1.5 ug/kg) | Serious adverse event: Nausea (1.5 ug/kg) | Serious adverse event: Neutropenia (1.5 ug/kg) | Serious adverse event: Pain (1.5 ug/kg) | Serious adverse event: Pyrexia (1.5 ug/kg) | Serious adverse event: Respiratory failure (1.5 ug/kg) | Serious adverse event: Respiratory, thoracic and mediastinal disorders (1.5 ug/kg) | Serious adverse event: Thrombocythaemia (1.5 ug/kg) | Adverse event: Abdominal pain (2.25 ug/kg) | Adverse event: Azotaemia (2.25 ug/kg) | Adverse event: Blood creatinine increased (2.25 ug/kg) | Adverse event: Chills (2.25 ug/kg) | Adverse event: Confusional state (2.25 ug/kg) | Adverse event: Dehydration (2.25 ug/kg) | Adverse event: Diarrhea (2.25 ug/kg) | Adverse event: Dyspnoea (2.25 ug/kg) | Adverse event: Eructation (2.25 ug/kg) | Adverse event: Fatigue (2.25 ug/kg) | Adverse event: Febrile neutropenia (2.25 ug/kg) | Adverse event: General physical health deterioration (2.25 ug/kg) | Adverse event: Haematocrit decreased (2.25 ug/kg) | Adverse event: Headache (2.25 ug/kg) | Adverse event: Hepatobiliary disorders (2.25 ug/kg) | Adverse event: Hiccups (2.25 ug/kg) | Adverse event: Hyperbilirubinaemia (2.25 ug/kg) | Adverse event: Hypoalbuminaemia (2.25 ug/kg) | Adverse event: Hypokalaemia (2.25 ug/kg) | Adverse event: Hypomagnesaemia (2.25 ug/kg) | Adverse event: Insomnia (2.25 ug/kg)
7: Adverse event: Anemia (1.5 ug/kg) | Adverse event: Gastrointestinal disorders (1.5 ug/kg) | Adverse event: General disorders and administration site conditions (1.5 ug/kg) | Adverse event: Gastrointestinal disorders (2.25 ug/kg)
6: Adverse event: Nausea (1.5 ug/kg) | Adverse event: Blood and lymphatic system disorders (2.25 ug/kg)
4: Adverse event: Skin and subcutaneous tissue disorders (1.5 ug/kg)
3: Adverse event: Cardiac disorders (1.5 ug/kg) | Adverse event: Constipation (1.5 ug/kg) | Adverse event: Investigations (1.5 ug/kg) | Adverse event: Nervous system disorders (1.5 ug/kg) | Adverse event: Neutropenia (1.5 ug/kg) | Adverse event: Pain (1.5 ug/kg) | Adverse event: Thrombocytopenia (1.5 ug/kg) | Adverse event: Alopecia (2.25 ug/kg) | Adverse event: General disorders and administration site conditions (2.25 ug/kg) | Adverse event: Leukopenia (2.25 ug/kg)
2: Adverse event: Abdominal pain (1.5 ug/kg) | Adverse event: Alopecia (1.5 ug/kg) | Adverse event: Diarrhea (1.5 ug/kg) | Adverse event: Leukopenia (1.5 ug/kg) | Adverse event: Lymphopenia (1.5 ug/kg) | Adverse event: Rash (1.5 ug/kg) | Adverse event: Respiratory, thoracic and mediastinal disorders (1.5 ug/kg) | Adverse event: Stomatitis (1.5 ug/kg) | Adverse event: Tachycardia (1.5 ug/kg) | Adverse event: Vomiting (1.5 ug/kg) | Serious adverse event: Blood and lymphatic system disorders (1.5 ug/kg) | Serious adverse event: Cardiac disorders (1.5 ug/kg) | Serious adverse event: Gastrointestinal disorders (1.5 ug/kg) | Serious adverse event: General disorders and administration site conditions (1.5 ug/kg) | Adverse event: Anemia (2.25 ug/kg) | Adverse event: Constipation (2.25 ug/kg) | Adverse event: Cough (2.25 ug/kg) | Adverse event: Dizziness (2.25 ug/kg) | Adverse event: Hypertension (2.25 ug/kg) | Adverse event: Hyponatraemia (2.25 ug/kg) | Adverse event: Investigations (2.25 ug/kg) | Adverse event: Metabolism and nutrition disorders (2.25 ug/kg)
